# Measured values: ChEMBL document CHEMBL1201862, “PubChem BioAssay data set” (2004)
# Where “and” joins values, the source holds several entries; their conditions need not be identical. Equal entries are not always repeated.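 Step 1: Grow cells in 96-well plates. Step 2: Expose to compound for 48 hours at 5 concentrations. Step 3: Interpolate endpoints linearly; if unreached, use highest concentration. GI50 marks 50% less growth.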 Calls of active or inactive are those of the source. Cut-off read from the data, not from the text of the source: active = GI50 up to about 1.1 µM and inactive = higher.
# Experiments:
# Assay in all cases: NCI anticancer screen, dose series, 48 h
# COLO 205 = test system: COLO 205
# NCI-H460 = test system: NCI-H460
# RXF 393 = test system: RXF 393
# PC-3 = test system: PC-3
# HL-60 = test system: HL-60
# A549 = test system: A549
# NCI-H522 = test system: NCI-H522
# ACHN = test system: ACHN
# HCT-15 = test system: HCT-15
# SNB-19 = test system: SNB-19
# M14 = test system: M14
# HCT-116 = test system: HCT-116
# KM12 = test system: KM12
# SR = test system: SR
# K562 = test system: K562
# EKVX = test system: EKVX
# LOX IMVI = test system: LOX IMVI
# MCF7 = test system: MCF7
# MDA-MB-231 = test system: MDA-MB-231
# NCI-H226 = test system: NCI-H226
SMILES,GI50 (COLO 205),GI50 (NCI-H460),GI50 (RXF 393),GI50 (PC-3),GI50 (HL-60),GI50 (A549),GI50 (NCI-H522),GI50 (ACHN),GI50 (HCT-15),GI50 (SNB-19),GI50 (M14),GI50 (HCT-116),GI50 (KM12),GI50 (SR),GI50 (K562),GI50 (EKVX),GI50 (LOX IMVI),GI50 (MCF7),GI50 (MDA-MB-231),GI50 (NCI-H226)
O=[N+]([O-])c1ccccc1CSc1nc(O)c2nc[nH]c2n1,> 100 µM (inactive),> 100 µM (inactive),> 100 µM (inactive),79.8 µM (inactive),78.2 µM (inactive),> 100 µM (inactive),> 100 µM (inactive) and 58.7 µM (inactive),> 100 µM (inactive),> 100 µM,59.8 µM (inactive),61.9 µM (inactive),> 100 µM (inactive),> 100 µM (inactive),> 100 µM (inactive),> 100 µM (inactive),51.8 µM (inactive),> 100 µM (inactive),> 100 µM (inactive) and > 99.3 µM (inactive),,
CCOP(=O)(/C=C\n1ccc(=O)[nH]c1=O)OCC,> 100 µM (inactive),> 10 µM (inactive),> 100 µM (inactive),> 100 µM (inactive),> 100 µM (inactive),> 100 µM (inactive),> 100 µM (inactive),> 100 µM (inactive),> 100 µM,> 100 µM (inactive),> 100 µM (inactive),> 100 µM (inactive),> 100 µM (inactive),,> 100 µM (inactive),> 100 µM (inactive),> 100 µM (inactive),> 100 µM (inactive),> 100 µM (inactive),> 100 µM (inactive)
Cc1ccc(C2=C(c3ccccc3)C(=O)C(c3ccccc3)=C2c2ccc(C)cc2)cc1,,36.1 µM (inactive),26.4 µM (inactive),,,43.7 µM (inactive),72.9 µM (inactive),32.3 µM (inactive),32.4 µM,54.3 µM (inactive),> 100 µM (inactive),31.4 µM (inactive),36.5 µM (inactive),58.5 µM (inactive),22.1 µM (inactive),38 µM (inactive),,,,65.5 µM (inactive)
Cc1ccc2cccc3c2c1CC1(C3=O)S(=O)(=O)OCCOS1(=O)=O,> 100 µM (inactive),> 100 µM (inactive),> 100 µM (inactive),> 100 µM (inactive),> 100 µM (inactive),> 100 µM (inactive),> 100 µM (inactive),> 100 µM (inactive),> 100 µM,> 100 µM (inactive),> 100 µM (inactive),> 100 µM (inactive),> 100 µM (inactive),,> 100 µM (inactive),> 100 µM (inactive),> 100 µM (inactive),> 100 µM (inactive),> 100 µM (inactive),> 100 µM (inactive)
COc1ccc([C@@H]2CC(=O)N2)cc1,> 100 µM (inactive),> 100 µM (inactive),> 100 µM (inactive),,> 100 µM (inactive),> 100 µM (inactive),> 100 µM (inactive),> 100 µM (inactive),> 100 µM,> 100 µM (inactive),> 100 µM (inactive),> 100 µM (inactive),> 100 µM (inactive),> 100 µM (inactive),> 100 µM (inactive),> 100 µM (inactive),,,,> 100 µM (inactive)
N#Cc1ccccc1NC(=O)/C(=N\NC(=O)c1ccncc1)C(c1cnc2ccc([N+](=O)[O-])cc2n1)[N+](=O)[O-] (stereo not drawn),,64.6 µM (inactive),> 100 µM (inactive),> 100 µM (inactive),> 100 µM (inactive),97.9 µM (inactive),33 µM (inactive),28 µM (inactive),78.3 µM,,67.6 µM (inactive),> 100 µM (inactive),39.9 µM (inactive),,,53.1 µM (inactive),84.5 µM (inactive),80.2 µM (inactive),> 100 µM (inactive),> 100 µM (inactive)
O=C1c2ccccc2-c2cc3ccccc3c(=O)n21,> 100 µM (inactive),> 100 µM (inactive),,> 100 µM (inactive),,> 100 µM (inactive),15.5 µM (inactive),> 100 µM (inactive),> 100 µM,> 100 µM (inactive),97.3 µM (inactive),> 100 µM (inactive),> 100 µM (inactive),> 100 µM (inactive),> 100 µM (inactive),> 100 µM (inactive),> 100 µM (inactive),29 µM (inactive),,
CCOC(=O)C(/C(=N/NC(=O)OC)C(=O)Nc1ccc(C(C)=O)cc1)c1cnc2ccccc2n1 (stereo not drawn),> 100 µM (inactive),> 100 µM (inactive),> 100 µM (inactive),,> 100 µM (inactive),> 100 µM (inactive),> 100 µM (inactive),> 100 µM (inactive),> 100 µM,> 100 µM (inactive),> 100 µM (inactive),> 100 µM (inactive),> 100 µM (inactive),> 100 µM (inactive),> 100 µM (inactive),> 100 µM (inactive),> 100 µM (inactive),,,> 100 µM (inactive)
O=C1CCN(CCC(F)(F)C(F)(F)C(F)(F)C(F)(F)F)C(=S)N1,> 100 µM (inactive),> 100 µM (inactive),> 100 µM (inactive),,> 100 µM (inactive),> 100 µM (inactive),> 100 µM (inactive),> 100 µM (inactive),> 100 µM,> 100 µM (inactive),> 100 µM (inactive),> 100 µM (inactive),> 100 µM (inactive),> 100 µM (inactive),> 100 µM (inactive),> 100 µM (inactive),> 100 µM (inactive),,,> 100 µM (inactive)
Cc1ccc2nc(-c3ccc(N)c(I)c3)sc2c1,17.1 µM (inactive),18.2 µM (inactive),24 µM (inactive),8.49 µM (inactive),12.9 µM (inactive),15.2 µM (inactive),18 µM (inactive),20.8 µM (inactive),6.11 µM,19 µM (inactive),37.1 µM (inactive),54.6 µM (inactive),5.87 µM (inactive),4.2 µM (inactive),21.3 µM (inactive),29 µM (inactive),,,14.3 µM (inactive),16 µM (inactive)
COc1cc(C(=O)Nc2cccc3ccccc23)c(Br)c(OC)c1OC,> 100 µM (inactive),64.9 µM (inactive),42.7 µM (inactive),,24.2 µM (inactive),66.2 µM (inactive),56.9 µM (inactive),81.7 µM (inactive),> 100 µM,> 100 µM (inactive),> 100 µM (inactive),67.9 µM (inactive),70.3 µM (inactive),> 100 µM (inactive),43.5 µM (inactive),> 100 µM (inactive),80 µM (inactive),,,36.3 µM (inactive)
COc1ccc(C2=NN(C(=O)c3ccc(Cl)cc3)C(O)(c3cc(F)c(Cl)cc3Cl)C2)cc1OC (stereo not drawn),,9.14 µM (inactive),6.17 µM (inactive),6.44 µM (inactive),0.495 µM (active),,6.68 µM (inactive),14.9 µM (inactive),8.28 µM,,12.5 µM (inactive),6.14 µM (inactive),8.15 µM (inactive),,5.82 µM (inactive),27.7 µM (inactive),37.9 µM (inactive),4.61 µM (inactive),> 100 µM (inactive),> 100 µM (inactive)
O=C(OCC1OC(c2nn[nH]n2)C(OC(=O)c2ccccc2)C1OC(=O)c1ccccc1)c1ccccc1 (stereo not drawn),> 100 µM (inactive),71 µM (inactive),41.9 µM (inactive),> 100 µM (inactive),> 100 µM (inactive),> 100 µM (inactive),,> 100 µM (inactive),> 100 µM,32.7 µM (inactive),,> 100 µM (inactive),67.6 µM (inactive),,46.2 µM (inactive),66.1 µM (inactive),> 100 µM (inactive),41.2 µM (inactive),,79.8 µM (inactive)
CC(=O)NNc1nc(C)c(C(/C=C/c2ccc(Cl)cc2)=N/NC(=S)NN)s1,> 100 µM (inactive),> 100 µM (inactive),> 100 µM (inactive),,> 100 µM (inactive),> 100 µM (inactive),> 100 µM (inactive),> 100 µM (inactive),> 100 µM,> 100 µM (inactive),> 100 µM (inactive),> 100 µM (inactive),> 100 µM (inactive),> 100 µM (inactive),> 100 µM (inactive),> 100 µM (inactive),> 100 µM (inactive),,,> 100 µM (inactive)
CCN(CC)CCNc1n[n+]([O-])c2ccccc2[n+]1[O-],5.96 µM (inactive),,4.65 µM (inactive),5.78 µM (inactive),1.85 µM (inactive),,,2.95 µM (inactive),3.92 µM,13.5 µM (inactive),6.7 µM (inactive),7.73 µM (inactive),9.2 µM (inactive),,1.72 µM (inactive),12.7 µM (inactive),9.86 µM (inactive),,,7.21 µM (inactive)
O=c1c2cccc3cccc(c4n1CCCN=4)c32,> 100 µM (inactive),> 100 µM (inactive),> 100 µM (inactive),,47.5 µM (inactive),> 100 µM (inactive),> 100 µM (inactive),> 100 µM (inactive),> 100 µM,,> 100 µM (inactive),31 µM (inactive),> 100 µM (inactive),31.3 µM (inactive),> 100 µM (inactive),> 100 µM (inactive),20.1 µM (inactive),,,> 100 µM (inactive)
CN(C)/N=N/c1ccc(C(N)=O)cc1,> 100 µM (inactive),> 100 µM (inactive),> 100 µM (inactive),,> 100 µM (inactive),> 100 µM (inactive),> 100 µM (inactive),> 100 µM (inactive),> 100 µM,> 100 µM (inactive),> 100 µM (inactive),> 100 µM (inactive),> 100 µM (inactive),> 100 µM (inactive),> 100 µM (inactive),> 100 µM (inactive),> 100 µM (inactive),,,> 100 µM (inactive)
